Broadly, the Ki is a dissociation constant, usually derived from enzyme kinetics or from competition with a known ligand.

10 compounds from patent US8461328B2, “Tricyclic heterocyclic compounds, compositions and methods of use thereof” (Genentech, Inc., priority 2010, dated 2013) can be followed below.

Common to all, as to type: biochemical
Test [1] addresses T1, JAK1 (Homo sapiens, UniProt P23458).
T1 construct: made in house; host or cells: SF9 insect cells (baculovirus)
The experiment in a line: JAK1 inhibition (Table 4). The following applies: read-out: JAK1 Ki.

Test [2] has as its target T2, TYK2 (Homo sapiens, UniProt P29597).
T2 construct: made in house; host or cells: SF9 insect cells (baculovirus)
T2 sequence (P29597 873-1187): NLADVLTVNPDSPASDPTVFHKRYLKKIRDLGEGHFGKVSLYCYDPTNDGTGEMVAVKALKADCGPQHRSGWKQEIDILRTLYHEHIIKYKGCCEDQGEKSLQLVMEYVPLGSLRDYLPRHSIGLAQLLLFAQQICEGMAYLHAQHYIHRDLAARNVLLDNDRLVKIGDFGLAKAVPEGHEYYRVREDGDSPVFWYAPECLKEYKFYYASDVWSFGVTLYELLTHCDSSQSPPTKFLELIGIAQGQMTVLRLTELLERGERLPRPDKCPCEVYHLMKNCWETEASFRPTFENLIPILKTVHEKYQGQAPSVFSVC
In words: TYK2 inhibition (Table 4).

The target in test [3] is T3, JAK2 (Homo sapiens, UniProt O60674).
T3 construct: made in house; host or cells: SF9 insect cells (baculovirus)
T3 sequence (O60674 812-1132): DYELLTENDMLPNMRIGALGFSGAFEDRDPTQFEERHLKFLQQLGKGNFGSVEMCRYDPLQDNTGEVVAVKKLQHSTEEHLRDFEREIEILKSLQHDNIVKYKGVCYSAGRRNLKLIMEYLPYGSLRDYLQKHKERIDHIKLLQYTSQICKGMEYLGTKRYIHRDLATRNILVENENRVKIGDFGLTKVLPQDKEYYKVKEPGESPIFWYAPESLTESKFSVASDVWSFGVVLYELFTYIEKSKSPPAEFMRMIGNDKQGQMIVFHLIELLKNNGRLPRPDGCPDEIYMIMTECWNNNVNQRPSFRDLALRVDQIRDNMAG
In words: JAK2 inhibition (Table 4). The settings on record: read-out: JAK2 Ki.

The target of test [4] is T4, JAK3 (Homo sapiens, UniProt P52333).
T4 construct: made in house; host or cells: SF9 insect cells (baculovirus)
T4 sequence (P52333 783-1124): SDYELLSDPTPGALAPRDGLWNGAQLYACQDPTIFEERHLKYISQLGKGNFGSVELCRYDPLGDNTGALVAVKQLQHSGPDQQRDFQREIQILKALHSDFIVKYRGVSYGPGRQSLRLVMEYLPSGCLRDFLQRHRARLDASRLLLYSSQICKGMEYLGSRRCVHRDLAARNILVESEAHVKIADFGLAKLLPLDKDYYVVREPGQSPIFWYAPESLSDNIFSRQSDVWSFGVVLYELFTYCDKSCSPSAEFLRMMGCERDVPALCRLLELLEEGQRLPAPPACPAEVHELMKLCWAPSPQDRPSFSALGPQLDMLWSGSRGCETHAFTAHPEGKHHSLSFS
In words: JAK3 inhibition (Table 4). The following applies: read-out: JAK3 Ki.

T1 sequence (P23458 852-1154): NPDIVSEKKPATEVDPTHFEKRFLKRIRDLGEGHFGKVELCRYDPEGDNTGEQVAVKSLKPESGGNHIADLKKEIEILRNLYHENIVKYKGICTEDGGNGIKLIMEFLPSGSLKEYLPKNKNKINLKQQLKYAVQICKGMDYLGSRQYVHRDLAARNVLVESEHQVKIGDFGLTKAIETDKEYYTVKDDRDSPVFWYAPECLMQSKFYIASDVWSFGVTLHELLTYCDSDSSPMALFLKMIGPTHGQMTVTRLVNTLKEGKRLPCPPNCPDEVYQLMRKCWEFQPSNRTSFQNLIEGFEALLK

In the case of `CCN1CCC(n2c(CCNC(=O)OC)nc3cnc4[nH]ccc4c32)C(F)(F)C1` (stereo not shown) [Example 908, {2-[1-(1-Ethyl-3,3-difluoro-piperidin-4-yl)-1,6-dihydro-1,3,5,6-tetraaza-as-indacen-2-yl]-ethyl}-carbamic acid methyl ester], the Ki in test [1] came to 6.07 nM; in test [2], 282 nM; in test [3] it was 37.1 nM; in test [4], 16.3 nM.
The like results for `C[C@@H](O)c1nc2cnc3[nH]ccc3c2n1[C@H]1CC[C@H](OC(=O)N(C)C)CC1` [Example 609, Trans dimethyl-carbamic acid 4-[2-((R)-1-hydroxy-ethyl)-6H-1,2,3,5,6-tetraaza-as-indacen-1-yl]-cyclohexyl ester] were, in that order, 96.7 nM, 910 nM, 641 nM and 701 nM.
Turning to `c1cc2c(ncc3ncn(C4CCN(C5CCOCC5)CC4)c32)[nH]1` [Example 85, 1-[-(Tetrahydro-pyran-4-yl)-piperidin-4-yl]-1,6-dihydro-1,3,5,6-tetraaza-as-indacene], the Ki in test [1] is 32.2 nM; in test [2], 153 nM; in test [3], 64.3 nM; in test [4], 716 nM.
On to `CC1(COC(=O)N[C@H]2CC[C@H](n3cnc4cnc5[nH]ccc5c43)CC2)CC1` [Example 348, [4-(6H-1,3,5,6-Tetraaza-as-indacen-1-yl)-cyclohexyl]-carbamic acid 1-methyl-cyclopropylmethyl ester], for which the Ki in test [1] was 5.6 nM; in test [2], 148 nM; in test [3], 15 nM; in test [4], 78.5 nM.
The like results for `CCN1CCC(n2c(C)nc3cnc4[nH]ccc4c32)C(F)(F)C1` (racemic) [Example 531, 1-(1-Ethyl-3,3-difluoro-piperidin-4-yl)-2-methyl-1,6-dihydro-1,3,5,6-tetraaza-as-indacene] were, in that order, 1.77 nM, 21.2 nM, 4.58 nM and 4.23 nM.
For `N#C[C@@H]1C[C@@H]1C(=O)N1CCC[C@@H](n2cnc3cnc4[nH]ccc4c32)C1` [Example 340, (1R,2S)-2-[(R)-3-(6H-1,3,5,6-Tetraaza-as-indacen-1-yl)-piperidine-1-carbonyl]-cyclopropanecarbonitrile], in that order: 17.2 nM, 101 nM, 19.5 nM and 24.6 nM.
The like results for `FC(F)(F)c1cccc(CN2CCC(n3cnc4cnc5[nH]ccc5c43)CC2)n1` [Example 314, 1-[1-(6Trifluoromethyl-pyridin-2-ylmethyl)-piperidin-4-yl]-1,6-dihydro-1,3,5,6-tetraaza-as-indacene] were, in that order, 4.46 nM, 124 nM, 7.44 nM and 36.2 nM.
For the compound `OCCc1nc2cnc3[nH]ccc3c2n1[C@H]1CCCOC1` [Example 859, (S)-2-[1-(Tetrahydro-pyran-3-yl)-1,6-dihydro-1,3,5,6-tetraaza-as-indacen-2-yl]-ethanol], the inhibition constant Ki in test [1] came to 10.1 nM; in test [2] it was 68.4 nM; in test [3], 53 nM; in test [4] it was 107 nM.
The like results for `CN(C)CC(=O)N1CCC[C@@H](n2cnc3cnc4[nH]ccc4c32)C1` [Example 32, 2-Dimethylamino-1-[(R)-3-(6H-1,3,5,6-tetraaza-as-indacen-1-yl)-piperidin-1-yl]ethanone] were, in that order, 181 nM, 3180 nM, 568 nM and 1820 nM.
The like results for `CC(=O)NCc1nc2cnc3[nH]ccc3c2n1C1CCN(CCC#N)CC1` [Example 492, N-{1-[1-(2-Cyano-ethyl)-piperidin-4-yl]-1,6-dihydro-1,3,5,6-tetraaza-as-indacen-2-ylmethyl}-acetamide] were, in that order, 16 nM, 210 nM, 86.5 nM and 200 nM.
